Test results taken from ChEMBL document CHEMBL1137071, “Phenyl thiazolyl urea and carbamate derivatives as new inhibitors of bacterial cell-wall biosynthesis” (Bioorg Med Chem Lett, 2004).
Values after ≈ are worked out from the molar mass of the structure shown.

Legend:
Type in all cases: functional
[1] = Inhibitory activity against MurA from Escherichia coli
Enterococcus faecalis [2] = experiment: Antimicrobial activity against Enterococcus faecalis GC 2242 (VRE)
Staphylococcus aureus [3] = experiment: Antimicrobial activity against Staphylococcus aureus GC 4543 (MSSA)
Streptococcus pneumoniae [4] = experiment: Antimicrobial activity against Streptococcus pneumoniae GC1894 (PRSP) in the presence of 4% bovine serum albumin
Streptococcus pneumoniae [5] = experiment: Antimicrobial activity against Streptococcus pneumoniae GC1894 (PRSP)
[6] = Inhibitory activity against MurB from Escherichia coli
Escherichia coli [7] = experiment: Antimicrobial activity against Escherichia coli GC 4559
Enterococcus faecalis [8] = experiment: Antimicrobial activity against Enterococcus faecalis GC 4555 (ATCC)
Staphylococcus aureus [9] = experiment: Antimicrobial activity against Staphylococcus aureus GC 1131 (MRSA)
[10] = Inhibitory activity against MurB from Staphylococcus aureus
Staphylococcus aureus [11] = experiment: Antimicrobial activity against Staphylococcus aureus GC 2216 (ATCC)
[12] = Antimicrobial activity against MSCNS (methicillin-susceptible coagulase-negative staphylococci) GC 646; conditions: Staphylococcus
Escherichia coli [13] = experiment: Antimicrobial activity against Escherichia coli GC 4560

Structure (SMILES)	IC50 [1] [µg/mL]	MIC (Enterococcus faecalis [2]) [µg/mL]	MIC (Staphylococcus aureus [3]) [µg/mL]	MIC (Streptococcus pneumoniae [4]) [µg/mL]	MIC (Streptococcus pneumoniae [5]) [µg/mL]	IC50 [6] [µg/mL]	MIC (Escherichia coli [7]) [µg/mL]	MIC (Enterococcus faecalis [8]) [µg/mL]	MIC (Staphylococcus aureus [9]) [µg/mL]	IC50 [10] [µg/mL]	MIC (Staphylococcus aureus [11]) [µg/mL]	MIC [12] [µg/mL]	MIC (Escherichia coli [13]) [µg/mL]
CC(C)(C)c1nc(NC(=O)NCc2ccc(Cl)c(Cl)c2)sc1C#N	20.8 (≈ 54.3 µM)	0.5 (≈ 1.3 µM)	0.5 (≈ 1.3 µM)	128	< 0.12	> 25	> 128	1 (≈ 2.61 µM)	1 (≈ 2.61 µM)	11 (≈ 28.7 µM)	0.25 (≈ 0.652 µM)	1 (≈ 2.61 µM)	2 (≈ 5.22 µM)
CN[C@H](CC(C)C)C(=O)N[C@H]1C(=O)N[C@@H](CC(N)=O)C(=O)N[C@H]2C(=O)N[C@H]3C(=O)N[C@H](C(=O)N[C@H](C(=O)O)c4cc(O)cc(O)c4-c4cc3ccc4O)[C@H](O)c3ccc(c(Cl)c3)Oc3cc2cc(c3O[C@@H]2O[C@H](CO)[C@@H](O)[C@H](O)[C@H]2O[C@H]2C[C@](C)(N)[C@H](O)[C@H](C)O2)Oc2ccc(cc2Cl)[C@H]1O [VANCOMYCIN]	–	> 128	–	–	< 0.12	–	> 128	2 (≈ 1.38 µM)	–	–	–	–	0.25 (≈ 0.173 µM)
CC(C)(C)c1nc(NC(=O)OCc2ccc(Cl)c(Cl)c2)sc1C#N	25 (≈ 65.1 µM)	1 (≈ 2.6 µM)	1 (≈ 2.6 µM)	> 128	0.25 (≈ 0.651 µM)	18 (≈ 46.8 µM)	> 128	2 (≈ 5.2 µM)	2 (≈ 5.2 µM)	–	8 (≈ 20.8 µM)	> 128	> 128
N#Cc1sc(NC(=O)Nc2ccc(Cl)c(Cl)c2)nc1Cl	> 25	0.25 (≈ 0.719 µM)	0.25 (≈ 0.719 µM)	> 128	< 0.12	> 25	> 128	0.5 (≈ 1.44 µM)	0.5 (≈ 1.44 µM)	> 25	0.25 (≈ 0.719 µM)	0.5 (≈ 1.44 µM)	0.5 (≈ 1.44 µM)
O=C(Nc1ccc(Cl)c(Cl)c1)Nc1ncc([N+](=O)[O-])s1	4.6 (≈ 13.8 µM)	1 (≈ 3 µM)	0.5 (≈ 1.5 µM)	128	0.25 (≈ 0.75 µM)	3.8 (≈ 11.4 µM)	> 128	1 (≈ 3 µM)	1 (≈ 3 µM)	3 (≈ 9 µM)	0.25 (≈ 0.75 µM)	0.5 (≈ 1.5 µM)	2 (≈ 6 µM)
CCOc1nc(NC(=O)Nc2ccc(Cl)c(Cl)c2)sc1C#N	> 25	0.5 (≈ 1.4 µM)	0.5 (≈ 1.4 µM)	128	< 0.12	23 (≈ 64.4 µM)	> 128	> 128	1 (≈ 2.8 µM)	–	0.5 (≈ 1.4 µM)	0.5 (≈ 1.4 µM)	0.5 (≈ 1.4 µM)
CC(C)COc1nc(NC(=O)Nc2ccc(Cl)c(Cl)c2)sc1C#N	> 25	0.25 (≈ 0.649 µM)	0.25 (≈ 0.649 µM)	128	< 0.12	5.8 (≈ 15.1 µM)	> 128	0.25 (≈ 0.649 µM)	0.5 (≈ 1.3 µM)	–	0.5 (≈ 1.3 µM)	0.25 (≈ 0.649 µM)	> 128
CC(C)(C)c1nc(NC(=O)Nc2ccc(F)c(F)c2)sc1C#N	> 25	0.5 (≈ 1.49 µM)	< 0.12	128	< 0.12	> 25	> 128	1 (≈ 2.97 µM)	< 0.12	–	< 0.12	0.5 (≈ 1.49 µM)	1 (≈ 2.97 µM)
COc1nc(NC(=O)Nc2ccc(Cl)c(Cl)c2)sc1C#N	21.6 (≈ 62.9 µM)	4 (≈ 11.7 µM)	> 128	> 128	> 128	9.8 (≈ 28.6 µM)	> 128	32 (≈ 93.2 µM)	> 128	–	> 128	> 128	> 128
N#Cc1cnc(NC(=O)Nc2ccc(F)c(F)c2)s1	> 25	4 (≈ 14.3 µM)	2 (≈ 7.14 µM)	64	0.5 (≈ 1.78 µM)	19 (≈ 67.8 µM)	8 (≈ 28.5 µM)	4 (≈ 14.3 µM)	4 (≈ 14.3 µM)	–	4 (≈ 14.3 µM)	4 (≈ 14.3 µM)	4 (≈ 14.3 µM)
